ChEMBL document CHEMBL1201862, “PubChem BioAssay data set” (2004)
Active and inactive are the calls of the source.

Tests used:
[1] = molecular target: Delta-type opioid receptor (Homo sapiens, UniProt P41143); assay: Counterscreen for agonists of heterodimerization of the mu 1 (OPRM1) and delta 1 (OPRD1) opioid receptors: Luminescence-based cell-based high throughput dose response assay to identify agonists of OPRD1 homodimerization. [Related pubchem assays (depositor defined):AID504326, AID504355, AID504692, AID504904, AID504905]; format: functional
[2] = molecular target: Mu-type opioid receptor (Homo sapiens, UniProt P35372); assay: Counterscreen for agonists of heterodimerization of the mu 1 (OPRM1) and delta 1 (OPRD1) opioid receptors: Luminescence-based cell-based high throughput dose response assay to identify agonists of OPRM1 homodimerization.; format: functional;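 further: U2OS cells expressing OPRM1 and beta-arrestin as split beta-galactosidase partners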
[3] = molecular target: 5-hydroxytryptamine receptor 5A (Homo sapiens, UniProt P47898); assay: Counterscreen for agonists of OPRM1-OPRD1 heterodimerization: luminescence-based cell-based high throughput dose response assay to identify agonists of 5-hydroxytryptamine (serotonin) 5A receptor (HTR5A). [Related pubchem assays (depositor defined):AID504326, AID504355, AID504692, AID504904, AID504905]; format: functional
[4] = insulin promoter down-regulators in MIN6 cells, imaging, high-content screening, mouse beta cells (AID 1628); format: functional
[5] = cytotoxicity in MIN6 insulinoma cells, dose response, cytotoxicity control, cell-based, mouse insulinoma (AID 2122); format: functional;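 further: confirmatory high-throughput counterscreen run to flag cytotoxic compounds; mouse MIN-6 beta cells carrying an insulin promoter eGFP reporter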
[6] = inhibitors of intracellular T. cruzi replication, confirmation, NIH3T3 host cells, beta-gal luminescence (AID 2044); format: functional, cell-based;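 further: intracellular parasites grown in NIH/3T3 mouse fibroblasts as host cells; luminescent beta-galactosidase reporter signal from transgenic T. cruzi replicating inside host cells; inhibitors lower the luminescence signal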
[7] = cytotoxicity toward NIH3T3 fibroblasts, dose response, counter-screen, cell-based, ATP luminescence, mouse fibroblasts (AID 2010); format: functional;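 further: cells exposed to compound for about 90 hours before reading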
[8] = Shn3 3'UTR reporter inhibitors, dose response, cell-based, Clone20 osteoblasts, firefly luciferase, cherry-picked (AID 624132); format: functional;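 further: firefly luciferase luminescence from reporter carrying the Shn3 3'UTR in osteoblasts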
[9] = HepG2 cell cytotoxicity, dose response, cytotoxicity control for Shn3 inhibitor project, CellTiter-Glo, cherry-picked (AID 624134); format: functional, cell-based
[10] = control 3'UTR Renilla luciferase suppression, dose response, counter-screen for Shn3 inhibitor project, cell-based, Clone20-Shn3RL, cherry-picked (AID 624133); format: functional
[11] = inhibitors of HIV Env-driven cell fusion, dose response, cherry-pick (AID 652057); format: functional, cell-based
[12] = CEM21 lymphoblast cell cytotoxicity, dose response, cytotoxicity control for viral fusion inhibitor project, CellTiter-Glo luminescence, cherry-picked (AID 652042); format: functional, cell-based;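 further: potency for signal decrease meaning cytotoxicity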
[13] = ZM109 Env clade C HIV-1 fusion inhibitors, dose response, HeLa effector, CEM target cells, luciferase, cherry-pick (AID 652058); format: functional, cell-based
[14] = off-target signal loss in HeLa-CEM21 co-culture – HeLa F-luc CTL cells, cherry-picked, counter-screen for HIV-1 Env fusion inhibitor project, dose response (AID 652040); format: functional, cell-based;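 further: potency for signal decrease marking cytotoxic or nonspecific inhibition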
[15] = molecular target: T1, Short transient receptor potential channel 4 (Mus musculus, UniProt Q9QUQ5); assay: mouse TRPC4 channel activators, dose response, cell-based, HEK293 TRPC4/mu-opioid, Fluo-4 calcium (AID 434937); format: functional
T1 sequence (Q9QUQ5 whole entry): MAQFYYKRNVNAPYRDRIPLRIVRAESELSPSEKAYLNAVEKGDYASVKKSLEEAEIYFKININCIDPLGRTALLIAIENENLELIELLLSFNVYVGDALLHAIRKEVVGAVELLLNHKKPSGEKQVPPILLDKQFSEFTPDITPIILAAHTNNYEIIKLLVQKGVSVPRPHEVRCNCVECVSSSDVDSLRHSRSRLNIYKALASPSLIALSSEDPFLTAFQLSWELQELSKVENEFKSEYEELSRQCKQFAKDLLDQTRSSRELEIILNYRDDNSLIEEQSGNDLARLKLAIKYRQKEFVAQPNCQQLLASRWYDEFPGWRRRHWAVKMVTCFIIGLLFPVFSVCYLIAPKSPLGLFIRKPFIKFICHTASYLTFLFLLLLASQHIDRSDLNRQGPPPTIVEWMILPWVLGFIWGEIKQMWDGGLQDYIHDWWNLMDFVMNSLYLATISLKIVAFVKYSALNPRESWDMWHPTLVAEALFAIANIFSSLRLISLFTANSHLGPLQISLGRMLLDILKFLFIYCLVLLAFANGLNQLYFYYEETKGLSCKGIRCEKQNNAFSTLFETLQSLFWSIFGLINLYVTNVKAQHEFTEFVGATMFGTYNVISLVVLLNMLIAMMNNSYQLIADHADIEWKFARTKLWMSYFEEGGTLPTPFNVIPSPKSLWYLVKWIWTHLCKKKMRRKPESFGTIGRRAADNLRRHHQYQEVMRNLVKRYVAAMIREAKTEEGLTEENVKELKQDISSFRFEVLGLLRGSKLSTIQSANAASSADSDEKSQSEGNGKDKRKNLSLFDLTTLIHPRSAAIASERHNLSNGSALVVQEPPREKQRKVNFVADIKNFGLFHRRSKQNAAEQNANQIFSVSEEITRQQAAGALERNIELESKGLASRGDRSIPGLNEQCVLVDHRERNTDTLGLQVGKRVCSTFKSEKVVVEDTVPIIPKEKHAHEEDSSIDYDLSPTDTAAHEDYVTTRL

[16] = inhibitors of firefly luciferase expression or activity, dose response, H4 neuroglioma cells, luminescence (AID 1990); format: functional, cell-based
[17] = molecular target: E3 ubiquitin-protein ligase Mdm2 (Homo sapiens, UniProt Q00987); assay: enhancers of MDM2-luciferase reporter signal, concentration-effect titration, project on inhibitors of MDM2 ubiquitin ligase, cellular assay, luminescent readout, 384-well plate format (AID 1394); format: functional;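 further: MDM2 E3 inhibitors raise luminescence so EC50 is for signal enhancement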
[18] = Luminescence Cell-Based Dose Response HTS to Identify Inhibitors of 5'UTR Stem-Loop Driven Prion Protein mRNA Translation in H4 Neuroglioblastoma Cells. [Related pubchem assays: 1827 (Project Summary), 1813 (Primary HTS)]; format: functional
[19] = molecular target: Beta-galactosidase (Escherichia coli, UniProt Q8VNN2); assay: PubChem AID 485352; format: functional
[20] = molecular target: G-protein coupled receptor 55 (Homo sapiens, UniProt Q9Y2T6); assay: GPR55 antagonists blocking LPI-driven arrestin recruitment, primary screen, imaging, U2OS, beta-arrestin-GFP, LPI agonist (AID 2013); format: functional;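 further: antagonist potency measured as reduced agonist-driven arrestin aggregation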
[21] = molecular target: T2, Type-1 angiotensin II receptor (Homo sapiens, UniProt P30556); assay: AT1 receptor antagonists, dose response, selectivity assay for APJ receptor antagonist project, cell-based, uHTS hits (AID 463214); format: functional;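 further: antagonist potency against angiotensin II stimulated AT1 response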
T2 sequence (P30556 whole entry): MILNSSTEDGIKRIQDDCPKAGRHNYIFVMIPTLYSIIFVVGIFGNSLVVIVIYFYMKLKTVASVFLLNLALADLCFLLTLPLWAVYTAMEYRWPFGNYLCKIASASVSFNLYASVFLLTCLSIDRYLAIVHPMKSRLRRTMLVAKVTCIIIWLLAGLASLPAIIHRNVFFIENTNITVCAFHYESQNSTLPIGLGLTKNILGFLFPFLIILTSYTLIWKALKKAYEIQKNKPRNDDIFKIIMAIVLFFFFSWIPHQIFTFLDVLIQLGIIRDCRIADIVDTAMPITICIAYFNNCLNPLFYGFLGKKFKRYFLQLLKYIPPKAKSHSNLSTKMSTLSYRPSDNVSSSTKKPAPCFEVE

[22] = test system: Jurkat; assay: antigen receptor-induced NF-kB inhibitors, dose response, Jurkat, luciferase reporter, luminescence, B- and T-cell (AID 489004); format: functional, cell-based; settings: Homo sapiens;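 further: NF-kB luciferase reporter Jurkat cells stimulated with PMA plus ionomycin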
[23] = cytotoxicity in HEK-293T NF-kB-Luc cells, dose response, cytotoxicity control for B/T-cell NF-kB inhibitor project, cell-based, uHTS hits (AID 489019); format: functional;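 further: IC50 reflects cytotoxicity as loss of cell viability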
[24] = test system: INS1; assay: beta cell apoptosis inhibitors, cytokine rescue, dose response, luminescence, retest (AID 449756); format: functional, cell-based; settings: Rattus norvegicus;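 further: cell death triggered by IL-1 beta plus TNF-alpha plus IFN-gamma mixture; protective hits raise ATP signal compared with cytokine alone wells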
[25] = molecular target: Photoreceptor-specific nuclear receptor (Homo sapiens, UniProt Q9Y5X4); format: functional, cell-based;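 further: CHO-S cells with Gal4-NCOR and VP16-NR2E3 two-hybrid luciferase reporter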
Photoreceptor-specific nuclear receptor, sequence (Q9Y5X4 whole entry, the tested form may be a part): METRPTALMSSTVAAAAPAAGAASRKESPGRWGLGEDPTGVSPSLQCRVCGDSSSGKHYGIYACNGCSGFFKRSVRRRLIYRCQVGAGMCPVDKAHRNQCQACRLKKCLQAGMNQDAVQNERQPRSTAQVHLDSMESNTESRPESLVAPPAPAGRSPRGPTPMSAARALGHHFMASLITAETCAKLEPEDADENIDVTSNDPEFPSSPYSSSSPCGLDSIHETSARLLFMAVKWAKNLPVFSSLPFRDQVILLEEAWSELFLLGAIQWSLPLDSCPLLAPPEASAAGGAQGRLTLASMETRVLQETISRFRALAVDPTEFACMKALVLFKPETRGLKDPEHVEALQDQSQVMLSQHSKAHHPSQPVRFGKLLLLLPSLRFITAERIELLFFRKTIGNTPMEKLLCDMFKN

5-hydroxytryptamine receptor 5A, sequence (P47898 whole entry): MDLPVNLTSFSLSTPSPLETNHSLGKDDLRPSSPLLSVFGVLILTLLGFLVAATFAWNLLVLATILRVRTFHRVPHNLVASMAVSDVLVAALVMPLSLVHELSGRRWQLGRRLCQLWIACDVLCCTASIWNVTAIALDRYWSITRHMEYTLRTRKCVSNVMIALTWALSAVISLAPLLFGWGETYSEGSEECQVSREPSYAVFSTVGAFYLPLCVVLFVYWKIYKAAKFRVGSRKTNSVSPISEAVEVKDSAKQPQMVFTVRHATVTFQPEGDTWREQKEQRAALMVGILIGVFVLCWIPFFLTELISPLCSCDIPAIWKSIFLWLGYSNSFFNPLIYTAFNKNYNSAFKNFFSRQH
Mu-type opioid receptor, sequence (P35372 whole entry): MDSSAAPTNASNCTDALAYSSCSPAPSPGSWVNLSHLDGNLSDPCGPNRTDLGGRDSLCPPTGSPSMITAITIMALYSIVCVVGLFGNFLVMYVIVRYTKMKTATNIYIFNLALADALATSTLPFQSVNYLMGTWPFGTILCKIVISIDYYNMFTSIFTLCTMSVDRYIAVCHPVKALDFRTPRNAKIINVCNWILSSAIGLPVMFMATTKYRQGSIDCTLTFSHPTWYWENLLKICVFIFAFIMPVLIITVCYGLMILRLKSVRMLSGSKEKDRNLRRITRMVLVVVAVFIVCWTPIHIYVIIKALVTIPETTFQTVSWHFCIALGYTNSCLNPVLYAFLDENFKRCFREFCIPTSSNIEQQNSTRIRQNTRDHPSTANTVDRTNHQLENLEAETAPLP
Delta-type opioid receptor, sequence (P41143 whole entry): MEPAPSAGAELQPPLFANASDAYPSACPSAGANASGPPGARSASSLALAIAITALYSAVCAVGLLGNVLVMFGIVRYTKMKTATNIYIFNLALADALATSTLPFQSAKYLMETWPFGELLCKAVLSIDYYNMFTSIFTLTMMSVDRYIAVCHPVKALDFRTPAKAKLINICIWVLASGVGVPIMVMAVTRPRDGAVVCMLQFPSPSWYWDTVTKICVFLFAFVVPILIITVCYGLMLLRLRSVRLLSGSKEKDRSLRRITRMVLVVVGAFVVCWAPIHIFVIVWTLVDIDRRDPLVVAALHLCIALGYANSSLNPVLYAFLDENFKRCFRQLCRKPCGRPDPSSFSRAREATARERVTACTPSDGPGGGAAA
G-protein coupled receptor 55, sequence (Q9Y2T6 whole entry): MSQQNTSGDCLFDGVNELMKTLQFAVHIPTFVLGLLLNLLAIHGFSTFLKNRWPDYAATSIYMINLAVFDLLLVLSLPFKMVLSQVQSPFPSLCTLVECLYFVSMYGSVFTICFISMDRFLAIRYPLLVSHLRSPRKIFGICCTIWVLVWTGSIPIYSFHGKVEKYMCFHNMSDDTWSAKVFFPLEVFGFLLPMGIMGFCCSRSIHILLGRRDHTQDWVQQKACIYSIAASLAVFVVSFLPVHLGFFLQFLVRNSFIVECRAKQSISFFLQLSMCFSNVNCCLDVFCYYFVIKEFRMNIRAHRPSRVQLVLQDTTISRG
E3 ubiquitin-protein ligase Mdm2, sequence (Q00987 whole entry): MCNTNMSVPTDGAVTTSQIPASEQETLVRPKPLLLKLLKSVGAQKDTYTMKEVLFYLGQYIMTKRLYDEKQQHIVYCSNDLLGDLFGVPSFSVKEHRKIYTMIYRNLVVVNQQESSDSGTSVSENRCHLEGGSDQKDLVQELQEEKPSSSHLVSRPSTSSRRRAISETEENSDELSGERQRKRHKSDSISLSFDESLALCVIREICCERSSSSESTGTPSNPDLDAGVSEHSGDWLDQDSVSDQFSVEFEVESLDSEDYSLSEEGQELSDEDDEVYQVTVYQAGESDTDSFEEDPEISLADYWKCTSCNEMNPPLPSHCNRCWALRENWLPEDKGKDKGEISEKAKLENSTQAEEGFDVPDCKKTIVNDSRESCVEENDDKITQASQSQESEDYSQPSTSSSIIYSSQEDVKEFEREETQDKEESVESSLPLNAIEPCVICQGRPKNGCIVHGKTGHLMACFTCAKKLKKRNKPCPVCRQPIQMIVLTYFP
Beta-galactosidase, sequence (Q8VNN2 whole entry): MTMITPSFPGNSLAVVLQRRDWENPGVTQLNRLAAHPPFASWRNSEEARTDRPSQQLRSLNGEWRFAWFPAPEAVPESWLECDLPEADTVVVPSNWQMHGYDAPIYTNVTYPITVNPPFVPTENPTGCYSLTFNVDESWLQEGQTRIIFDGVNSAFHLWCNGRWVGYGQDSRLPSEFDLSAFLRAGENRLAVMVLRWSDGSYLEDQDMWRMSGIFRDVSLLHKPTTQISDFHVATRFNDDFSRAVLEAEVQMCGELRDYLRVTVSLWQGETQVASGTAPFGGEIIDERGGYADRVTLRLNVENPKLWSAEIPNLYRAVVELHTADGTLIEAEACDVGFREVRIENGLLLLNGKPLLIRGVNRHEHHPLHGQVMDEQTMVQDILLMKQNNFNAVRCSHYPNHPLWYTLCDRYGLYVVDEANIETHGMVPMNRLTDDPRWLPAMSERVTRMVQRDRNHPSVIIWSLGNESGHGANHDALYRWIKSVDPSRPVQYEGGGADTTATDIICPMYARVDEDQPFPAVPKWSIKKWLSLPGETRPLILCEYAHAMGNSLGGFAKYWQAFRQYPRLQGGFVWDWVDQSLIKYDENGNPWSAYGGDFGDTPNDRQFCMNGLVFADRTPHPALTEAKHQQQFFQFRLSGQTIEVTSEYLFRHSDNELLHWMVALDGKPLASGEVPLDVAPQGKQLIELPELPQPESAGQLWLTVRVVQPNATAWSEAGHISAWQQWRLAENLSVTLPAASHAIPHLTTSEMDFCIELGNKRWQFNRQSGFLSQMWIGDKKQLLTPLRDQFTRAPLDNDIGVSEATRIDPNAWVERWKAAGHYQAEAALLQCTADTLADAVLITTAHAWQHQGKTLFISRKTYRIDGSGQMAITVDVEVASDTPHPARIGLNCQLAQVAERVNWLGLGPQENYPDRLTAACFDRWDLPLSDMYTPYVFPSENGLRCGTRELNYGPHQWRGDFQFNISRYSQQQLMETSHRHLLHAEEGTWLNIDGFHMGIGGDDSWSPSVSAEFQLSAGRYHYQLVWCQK

COC(=O)C(Cc1cccc(C)n1)(c1ccccc1)c1ccccc1
EC50 [1]: > 92.5 µM (inactive)
EC50 [2]: > 92.5 µM (inactive)
EC50 [3]: > 92.5 µM (inactive)

COc1ccc(Nc2cc(C)nc(NCc3ccccc3)n2)cc1
IC50 [4]: 1.14 µM (active)
IC50 [5]: 0.699 µM (active)
EC50 [6]: 0.12 µM (active)
EC50 [7]: > 60 µM (not active)
AC50 [8]: 3.9 µM (active)
AC50 [9]: 22 µM (active)
AC50 [10]: 0.565 µM (active)
AC50 [11]: 8.45 µM (active)
AC50 [12]: 26.7 µM (active)
AC50 [13]: 3.16 µM (active)
AC50 [14]: 21.2 µM (active)

Cc1cccc(NC(S)=NCC(c2cccnc2)N(C)C)c1C (stereo unspecified)
EC50 [15]: 0.0067 µM (active)
EC50 [1]: 17.8 µM (inactive)
EC50 [2]: 2.75 µM (active)
EC50 [3]: > 92.5 µM (inactive)

C=C1C(=O)O[C@@H]2C[C@@H](C)[C@@H]3C=CC(=O)[C@@]3(C)[C@@H](O)[C@H]12 [HELENALIN]
EC50 [16]: 4.62 µM (inconclusive)
EC50 [17]: 0.42 µM (active)
EC50 [18]: 8.32 µM (active)
EC50 [19]: > 40 µM (inactive)
IC50 [20]: 2.64 µM (active)
IC50 [21]: 18.6 µM (active)
IC50 [22]: 1.02 µM (active)
IC50 [23]: > 80 µM (inactive)
AC50 [24]: 2.27 µM (active)
AC50 [8]: 0.825 µM (active)
AC50 [9]: 4.35 µM (active)
AC50 [10]: 1.53 µM (active)
IC50 [25]: 1.92 µM (active)
